Test results from ChEMBL document CHEMBL5665443, “Enzyme Inhibitor Single Concentration assay results for EUbOPEN Chemogenomics Library” (2024).

Assays:
[1] = target: T1, Endonuclease III-like protein 1 (Homo sapiens) (UniProt P78549); details: Hit No;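 also: enzyme assay tracking NTHL1 cutting and release of a quenched double-stranded DNA oligo substrate, read as fluorescence at 594 nm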
T1 sequence (whole entry): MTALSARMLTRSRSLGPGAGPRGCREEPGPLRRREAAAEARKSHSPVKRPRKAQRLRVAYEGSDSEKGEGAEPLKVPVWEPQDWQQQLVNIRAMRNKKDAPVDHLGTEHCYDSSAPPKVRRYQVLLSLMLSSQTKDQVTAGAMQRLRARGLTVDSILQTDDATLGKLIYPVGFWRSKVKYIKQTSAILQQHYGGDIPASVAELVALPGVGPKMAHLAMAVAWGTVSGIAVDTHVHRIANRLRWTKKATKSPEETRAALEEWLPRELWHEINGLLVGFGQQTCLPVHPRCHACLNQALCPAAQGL
Description: Inhibition of NTHL1 by quantifying inhibition of NTHL1-mediated cleavage and dissociation of quenched duplex DNA oligonucleotides, measured as fluorescence at 594 nm.

[2] = target: N-glycosylase/DNA lyase (Homo sapiens) (UniProt O15527);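 also: OGG1 cleavage of a quenched duplex DNA oligonucleotide, coupled to APE1 for strand incision, read as fluorescence at 594 nm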
Description: Inhibition of OGG1 by quantifying inhibition of OGG1-mediated cleavage and dissociation of quenched duplex DNA oligonucleotides, measured as fluorescence at 594 nm. To generate a functional strand incision and increase turn-over this assay is coupled to APE1.

[3] = target: T2, Adenine DNA glycosylase (Homo sapiens) (UniProt Q9UIF7); details: Hit No;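 also: human MUTYH activity read as 594 nm fluorescence from cleavage and release of a quenched DNA duplex, coupled with APE1 for strand incision, lower signal meaning inhibition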
T2 sequence (whole entry): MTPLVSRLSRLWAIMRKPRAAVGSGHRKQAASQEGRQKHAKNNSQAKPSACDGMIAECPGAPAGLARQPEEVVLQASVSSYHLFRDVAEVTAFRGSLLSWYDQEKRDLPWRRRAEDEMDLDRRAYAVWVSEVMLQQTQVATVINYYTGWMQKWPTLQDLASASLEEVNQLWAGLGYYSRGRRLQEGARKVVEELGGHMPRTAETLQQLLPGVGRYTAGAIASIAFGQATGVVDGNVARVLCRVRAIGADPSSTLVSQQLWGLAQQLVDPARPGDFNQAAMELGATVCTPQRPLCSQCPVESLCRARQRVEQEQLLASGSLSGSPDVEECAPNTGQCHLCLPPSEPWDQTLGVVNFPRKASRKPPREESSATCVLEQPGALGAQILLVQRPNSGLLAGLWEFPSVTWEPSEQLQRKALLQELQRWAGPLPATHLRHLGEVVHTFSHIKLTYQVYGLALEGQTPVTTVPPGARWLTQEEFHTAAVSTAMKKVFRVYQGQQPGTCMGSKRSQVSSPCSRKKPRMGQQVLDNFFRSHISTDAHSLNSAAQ
Description: Inhibition of MUTYH by quantifying inhibition of MUTYH-mediated cleavage and dissociation of quenched duplex DNA oligonucleotides, measured as fluorescence at 594 nm. To generate a functional strand incision and increase turn-over this assay is coupled to APE1.

[4] = target: Methyl-CpG-binding domain protein 4 (Homo sapiens) (UniProt O95243); details: Hit No;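 also: MBD4 activity read as fluorescence at 594 nm from cleavage and release of a quenched duplex DNA oligonucleotide, with APE1 coupled to incise the strand and raise turnover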
Description: Inhibition of MBD4 by quantifying inhibition of MBD4-mediated cleavage and dissociation of quenched duplex DNA oligonucleotides, measured as fluorescence at 594 nm. To generate a functional strand incision and increase turn-over this assay is coupled to APE1.

[5] = target: Endonuclease 8-like 1 (Homo sapiens) (UniProt Q96FI4); details: Hit No;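 also: fluorescence at 594 nm from quenched duplex DNA oligonucleotides released by NEIL1 cleavage and strand separation, reported as reduction of this enzyme activity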
Description: Inhibition of NEIL1 by quantifying inhibition of NEIL1-mediated cleavage and dissociation of quenched duplex DNA oligonucleotides, measured as fluorescence at 594 nm.

[6] = target: T3, Endonuclease 8-like 2 (Homo sapiens) (UniProt Q969S2); details: Hit No;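 also: fluorescence at 594 nm reports NEIL2 cutting and release of a quenched double-stranded DNA oligo substrate, reduced signal read as inhibition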
T3 sequence (whole entry): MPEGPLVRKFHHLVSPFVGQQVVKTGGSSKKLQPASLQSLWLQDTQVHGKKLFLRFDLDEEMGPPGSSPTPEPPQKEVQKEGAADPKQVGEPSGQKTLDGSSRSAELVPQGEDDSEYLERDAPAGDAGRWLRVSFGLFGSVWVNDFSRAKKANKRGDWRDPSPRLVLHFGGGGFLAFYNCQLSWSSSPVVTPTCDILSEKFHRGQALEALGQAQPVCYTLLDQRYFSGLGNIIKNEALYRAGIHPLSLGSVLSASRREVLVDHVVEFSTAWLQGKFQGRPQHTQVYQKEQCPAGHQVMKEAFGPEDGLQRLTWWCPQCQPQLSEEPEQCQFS
Description: Inhibition of NEIL2 by quantifying inhibition of NEIL2-mediated cleavage and dissociation of quenched duplex DNA oligonucleotides, measured as fluorescence at 594 nm.

[7] = target: G/T mismatch-specific thymine DNA glycosylase (Homo sapiens) (UniProt Q13569); details: Hit No;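 also: human TDG cleavage of quenched duplex DNA oligonucleotides coupled to APE1, strand release read as fluorescence at 594 nm, inhibition of TDG activity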
Description: Inhibition of TDG by quantifying inhibition of TDG-mediated cleavage and dissociation of quenched duplex DNA oligonucleotides, measured as fluorescence at 594 nm. To generate a functional strand incision and increase turn-over this assay is coupled to APE1.

[8] = target: Uracil-DNA glycosylase (Homo sapiens) (UniProt P13051); details: Hit No;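 also: UNG excision on a quenched double-stranded DNA oligo probe, with APE1 added for strand incision and turnover, read as fluorescence at 594 nm as strands separate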
Description: Inhibition of UNG by quantifying inhibition of UNG-mediated cleavage and dissociation of quenched duplex DNA oligonucleotides, measured as fluorescence at 594 nm. To generate a functional strand incision and increase turn-over this assay is coupled to APE1.

[9] = target: T4, Single-strand selective monofunctional uracil DNA glycosylase (Homo sapiens) (UniProt Q53HV7); details: Hit No;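 also: enzymatic SMUG1 assay coupled with APE1, reading fluorescence at 594 nm released when a quenched double-stranded DNA oligonucleotide substrate is cleaved and separated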
T4 sequence (whole entry): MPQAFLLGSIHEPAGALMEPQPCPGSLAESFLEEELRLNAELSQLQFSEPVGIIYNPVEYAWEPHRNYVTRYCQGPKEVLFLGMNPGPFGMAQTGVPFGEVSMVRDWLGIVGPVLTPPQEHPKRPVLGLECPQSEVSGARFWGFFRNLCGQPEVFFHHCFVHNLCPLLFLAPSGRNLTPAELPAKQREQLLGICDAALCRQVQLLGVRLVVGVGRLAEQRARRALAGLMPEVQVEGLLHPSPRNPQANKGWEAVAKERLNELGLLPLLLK
Description: Inhibition of SMUG1 by quantifying inhibition of SMUG1-mediated cleavage and dissociation of quenched duplex DNA oligonucleotides, measured as fluorescence at 594 nm. To generate a functional strand incision and increase turn-over this assay is coupled to APE1.

[10] = Compound Concentration 10.0 uM, Hit No

N-glycosylase/DNA lyase (Homo sapiens), sequence (O15527 whole entry): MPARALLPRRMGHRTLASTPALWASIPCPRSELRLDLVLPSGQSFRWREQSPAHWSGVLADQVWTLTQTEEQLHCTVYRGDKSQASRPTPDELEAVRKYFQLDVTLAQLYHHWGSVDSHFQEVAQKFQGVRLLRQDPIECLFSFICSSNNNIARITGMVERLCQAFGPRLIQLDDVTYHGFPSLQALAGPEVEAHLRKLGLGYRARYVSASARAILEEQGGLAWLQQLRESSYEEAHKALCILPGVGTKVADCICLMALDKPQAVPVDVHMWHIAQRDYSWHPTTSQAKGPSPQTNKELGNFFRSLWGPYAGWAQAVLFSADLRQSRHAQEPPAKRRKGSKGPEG
Uracil-DNA glycosylase (Homo sapiens), sequence (P13051 whole entry): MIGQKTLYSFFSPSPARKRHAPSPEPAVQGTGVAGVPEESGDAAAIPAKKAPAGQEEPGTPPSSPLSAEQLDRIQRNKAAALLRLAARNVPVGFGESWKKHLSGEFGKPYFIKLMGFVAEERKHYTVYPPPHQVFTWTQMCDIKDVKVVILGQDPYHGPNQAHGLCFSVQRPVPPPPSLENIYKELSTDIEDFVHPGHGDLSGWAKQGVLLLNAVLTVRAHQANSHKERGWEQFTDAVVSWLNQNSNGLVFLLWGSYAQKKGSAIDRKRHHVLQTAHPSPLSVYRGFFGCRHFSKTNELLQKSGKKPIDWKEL
G/T mismatch-specific thymine DNA glycosylase (Homo sapiens), sequence (Q13569 whole entry): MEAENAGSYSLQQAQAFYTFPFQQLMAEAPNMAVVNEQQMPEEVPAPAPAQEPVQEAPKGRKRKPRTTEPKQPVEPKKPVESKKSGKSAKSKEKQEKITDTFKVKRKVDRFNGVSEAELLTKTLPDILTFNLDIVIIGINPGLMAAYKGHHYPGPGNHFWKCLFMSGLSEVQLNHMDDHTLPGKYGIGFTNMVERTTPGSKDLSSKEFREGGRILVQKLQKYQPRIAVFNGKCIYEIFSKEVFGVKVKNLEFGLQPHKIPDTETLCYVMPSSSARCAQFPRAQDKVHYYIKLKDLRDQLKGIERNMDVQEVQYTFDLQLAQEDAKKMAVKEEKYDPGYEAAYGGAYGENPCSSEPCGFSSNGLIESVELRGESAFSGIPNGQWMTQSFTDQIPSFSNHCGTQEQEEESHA
Endonuclease 8-like 1 (Homo sapiens), sequence (Q96FI4 whole entry): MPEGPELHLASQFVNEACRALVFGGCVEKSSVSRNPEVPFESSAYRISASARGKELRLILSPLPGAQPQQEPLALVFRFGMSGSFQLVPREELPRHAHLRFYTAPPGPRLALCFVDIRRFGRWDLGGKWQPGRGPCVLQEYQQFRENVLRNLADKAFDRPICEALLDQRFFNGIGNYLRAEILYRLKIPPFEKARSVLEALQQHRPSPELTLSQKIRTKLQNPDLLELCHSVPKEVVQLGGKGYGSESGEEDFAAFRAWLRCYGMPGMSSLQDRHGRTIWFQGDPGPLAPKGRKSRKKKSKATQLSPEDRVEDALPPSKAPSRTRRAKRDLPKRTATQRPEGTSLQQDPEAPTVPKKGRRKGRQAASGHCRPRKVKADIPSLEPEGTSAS
Methyl-CpG-binding domain protein 4 (Homo sapiens), sequence (O95243 whole entry, the tested form may be a part): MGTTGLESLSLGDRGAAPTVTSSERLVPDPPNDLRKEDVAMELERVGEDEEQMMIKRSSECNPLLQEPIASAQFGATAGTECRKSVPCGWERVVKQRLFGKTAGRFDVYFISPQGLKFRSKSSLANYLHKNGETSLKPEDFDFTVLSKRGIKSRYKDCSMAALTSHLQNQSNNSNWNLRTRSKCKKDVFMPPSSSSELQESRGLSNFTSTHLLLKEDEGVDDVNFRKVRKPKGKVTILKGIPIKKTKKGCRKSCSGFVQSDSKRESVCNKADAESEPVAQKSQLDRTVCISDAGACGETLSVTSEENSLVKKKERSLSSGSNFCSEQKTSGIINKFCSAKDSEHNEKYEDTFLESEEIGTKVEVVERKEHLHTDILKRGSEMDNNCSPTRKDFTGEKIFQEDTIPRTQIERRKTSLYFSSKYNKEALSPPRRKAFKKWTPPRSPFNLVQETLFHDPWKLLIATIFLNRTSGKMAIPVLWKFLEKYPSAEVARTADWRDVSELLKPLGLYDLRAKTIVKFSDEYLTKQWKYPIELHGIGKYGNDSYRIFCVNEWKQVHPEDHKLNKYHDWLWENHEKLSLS

| Molecule | inhibition ([1]; Compound Concentration 10.0 uM) [%] | inhibition [2, 10] [%] | inhibition ([3]; Compound Concentration 10.0 uM) [%] | inhibition ([4]; Compound Concentration 10.0 uM) [%] | inhibition ([5]; Compound Concentration 10.0 uM) [%] | inhibition ([6]; Compound Concentration 10.0 uM) [%] | inhibition ([7]; Compound Concentration 10.0 uM) [%] | inhibition ([2]; Compound Concentration 10.0 uM, Hit Yes) [%] | inhibition ([8]; Compound Concentration 10.0 uM) [%] | inhibition ([9]; Compound Concentration 10.0 uM) [%] | inhibition ([1]; Compound Concentration 1.0 uM) [%] | inhibition ([2]; Compound Concentration 1.0 uM, Hit No) [%] | inhibition ([3]; Compound Concentration 1.0 uM) [%] | inhibition ([9]; Compound Concentration 1.0 uM) [%] | inhibition ([8]; Compound Concentration 1.0 uM) [%] | inhibition ([5]; Compound Concentration 1.0 uM) [%] | inhibition ([7]; Compound Concentration 1.0 uM) [%] | inhibition ([4]; Compound Concentration 1.0 uM) [%] | inhibition ([6]; Compound Concentration 1.0 uM) [%] |
| --- | --- | --- | --- | --- | --- | --- | --- | --- | --- | --- | --- | --- | --- | --- | --- | --- | --- | --- | --- |
| COc1ccc(CN(CCN(C)C)c2ccccn2)cc1 | 21.7 | -6.42 | 4.88 | -9.78 | 2.61 | -3.23 | 2.93 | – | – | – | – | – | – | – | – | – | – | – | – |
| N#Cc1c(N)nc(SCc2csc(-c3ccc(Cl)cc3)n2)c(C#N)c1-c1ccc(OCCO)cc1 | 4.7 | – | 7.45 | -6.16 | – | – | 6.03 | 55.1 | -1.02 | – | – | – | – | – | – | – | – | – | – |
| N[C@@H]1c2cccnc2[C@H](OC(=O)N2CCC(n3c(=O)[nH]c4ncccc43)CC2)CC[C@H]1c1cccc(F)c1F | -6.14 | -5.76 | -2.28 | – | -2.58 | 0.515 | 6.23 | – | – | -4.73 | – | – | – | – | – | – | – | – | – |
| Cc1ccccc1N1CCN(CCc2nnc3n2CCCC3)CC1 | -6.14 | – | 7.44 | -9.49 | 0.834 | -1.98 | 4.82 | – | – | -1.58 | – | – | – | – | – | – | – | – | – |
| CNc1nc(Nc2cnn([C@H]3CCN(C4COC4)C[C@@H]3F)c2Cl)ncc1C(F)(F)F | – | – | – | – | – | – | – | – | – | – | -6.19 | -2.93 | -1.03 | 15 | 2.4 | -2.24 | 39.4 | – | – |
| COc1ccccc1S(=O)(=O)Nc1ccc(C)cc1Oc1ccc2c(N)nccc2c1 | 17.1 | -5.28 | 3.09 | 10.2 | 11 | 7.55 | 9.87 | – | -1.95 | – | – | – | – | – | – | – | – | – | – |
| CS(=O)(=O)NC[C@H]1CC[C@H](Nc2nc3c(s2)CCSc2ccccc2-3)CC1 | 34.9 | -8.83 | -5.74 | – | -5.25 | 8.25 | 2.85 | – | -8.36 | -4.83 | – | – | – | – | – | – | – | – | – |
| CSCC[C@H](NC(=O)[C@H](Cc1ccccc1)NC(=O)[C@H](Cc1c[nH]cn1)NC(=O)CNC(=O)[C@@H](NC(=O)[C@H](C)NC(=O)[C@H](Cc1c[nH]c2ccccc12)NC(=O)[C@H](CC(C)C)NC(=O)[C@H](CC(N)=O)NC(=O)CN)[C@@H](C)O)C(N)=O | 8.82 | – | 11.4 | -1.83 | 10.5 | -6.21 | -7.68 | – | -8.29 | – | – | – | – | – | – | – | – | – | – |
| N[C@@H](Cc1cc(I)c(Oc2ccc(O)c(I)c2)c(I)c1)C(=O)O | -3.92 | 4.51 | 10.3 | 68.9 | -7.26 | – | 102 | – | 5.16 | – | – | – | – | – | – | – | – | – | – |
| CC#CC(=O)N1CCC[C@H]1c1nc(-c2ccc(C(=O)Nc3ccccn3)cc2)c2c(N)nccn12 | -7.58 | 1.98 | 0.794 | -0.914 | – | – | 55.9 | – | 4.65 | – | – | – | – | – | – | – | – | – | – |
| CC(C)(C)c1ccc2c(c1)CC[C@H]2NC(=O)Nc1cccc2[nH]ncc12 | 3.04 | -2.36 | -7.76 | – | 7.86 | -4.17 | -8.31 | – | -4.28 | 11.7 | – | – | – | – | – | – | – | – | – |
| Cc1cccc([C@H](C)c2c[nH]cn2)c1C | -4.67 | -7.75 | 5.65 | – | -5.1 | 7.25 | 18.4 | – | – | -5.51 | – | – | – | – | – | – | – | – | – |
| OCCn1cc(-c2cnc3nnn(Cc4ccc5ncccc5c4)c3n2)cn1 | -9.68 | -5.86 | 0.369 | – | 2.52 | -5.15 | 49.5 | – | -1.44 | 18.6 | – | – | – | – | – | – | – | – | – |
| H-LVVYPWT-OH | 14.6 | -2.03 | 8.4 | 9.67 | 7.27 | 2.2 | 8.08 | – | -2.47 | – | – | – | – | – | – | – | – | – | – |
| Cc1nc(N2CC[C@@H](O)C2)ncc1-c1cc(C(F)(F)F)cc2[nH]ncc12 | -5.89 | – | -2.45 | 58.5 | – | – | 48 | – | -1.48 | 10.3 | – | – | – | – | – | – | – | – | – |
| Cc1c[nH]c2nccc(Oc3c(F)cc(Nc4cc(Cl)nc(N)n4)cc3F)c12 | – | – | – | – | – | – | – | – | – | – | -0.432 | – | 11.7 | 20.7 | 4.99 | – | 54.4 | 43.9 | 3.69 |
| Clc1ccc(OC[C@H]2CCN2)cn1 | 5.52 | -5.75 | -6.13 | -2.21 | -0.584 | -6.72 | – | – | -3.96 | – | – | – | – | – | – | – | – | – | – |
| Cc1nc(C#Cc2ccnc(Cl)c2)c(C)n1-c1ccc(OC(F)(F)F)cc1 | 7.05 | -0.162 | 14 | – | -9.4 | 5.26 | 20.9 | – | -8.09 | 5 | – | – | – | – | – | – | – | – | – |
| C[C@@H](Oc1cc(-n2cnc3ccc(CN4CCN(C)CC4)cc32)sc1C(N)=O)c1ccccc1C(F)(F)F | – | – | – | – | – | – | – | – | – | – | -6.19 | – | 6.26 | 26.8 | 5.21 | -0.655 | 50 | 15.4 | – |
| COc1cc(-c2cn([C@H]3CCc4ccccc4N(CC(F)(F)F)C3=O)nn2)ccc1-n1ccc(C)n1 | -9.83 | – | -8.57 | -5.88 | – | 12.5 | 24.5 | – | 8.95 | 8.81 | – | – | – | – | – | – | – | – | – |
| CN1CCN(c2cc(-c3ccccc3)nc(N)n2)CC1 | 9.99 | – | -4.71 | -3.57 | -2.28 | 7 | 1.13 | – | -9.1 | – | – | – | – | – | – | – | – | – | – |
| Cc1cc(NC(=O)c2cccc(S(F)(F)(F)(F)F)c2)cc(-n2ccn3nc(-c4cccnc4)cc23)c1 | 7.92 | – | – | 4.59 | – | -7.89 | 17.7 | – | 0.948 | 3.64 | -2 | – | 16 | 19.3 | 1.8 | – | 54.6 | – | – |
| O=C(O)c1cc(-c2ccc(C3CCNCC3)cc2)c2ccc(-c3ccc(C(F)(F)F)cc3)cc2c1 | 2.15 | -4.86 | 10.9 | – | -1.45 | 1.86 | 20.1 | – | 0.968 | -1.19 | – | – | – | – | – | – | – | – | – |
| O=C1c2cccc3c2[C@H](CCC3)CN1[C@@H]1CN2CCC1CC2 | 3.04 | – | -5.22 | 0.552 | -2.96 | – | 0.841 | – | -7.93 | -4.7 | – | – | – | – | – | – | – | – | – |
| CCCCC(=O)N(Cc1ccc(-c2ccccc2-c2nnn[nH]2)cc1)[C@H](C(=O)O)C(C)C | 1.92 | -4.35 | 34.3 | -9.61 | 0.537 | 1.76 | 0.584 | – | – | – | – | – | – | – | – | – | – | – | – |
| c1ccc(N2CCN(Cc3nc4ccccc4[nH]3)CC2)nc1 | 0.934 | -5.49 | 2.22 | 29.2 | – | – | 29.5 | – | -4.15 | – | – | – | – | – | – | – | – | – | – |
